Experimental data as given in patent publication US20080164212A1, “Method for Determining and Controlling the Formation of Deposits In a Water System” (ASHLAND LICENSING AND INTELLECTUAL PROPERTY LLC., priority 2005, published 2008).

Tested on: total germ count (aerobic bacteria) in wire water of a newsprint paper machine
Assay: Total germ count by plating on agar, wire water in a flow cell system dosed daily with biocide
Assay type: cell-based
Settings: 5 days in a flow cell, 48° C.
Protocol: Furthermore, conventional platings on agar (Plate Count Agar from Merck, Darmstadt, Germany) were also carried out to obtain an indication of the total germ counts.
The aim was to determine the correlation between the results of a conventional biocide screening and the real formation of slime deposits. The investigations were carried on the wire water of a newsprint paper machine using 100% TMP. With a biocide screening, it was possible to determine the optimum biocide concentration for the achievement of a germ count reduction by 10^2 within 30 minutes. In order to follow slime formation at this biocide concentration, a flow cell system with suspended coupons was employed.
The wire water, which was also used for the biocide screening, was poured into the storage bottles of this system and enriched with a number of clots of slime from the wire water channel. The investigation was carried out at system temperature (in this case 48° C.). During the test period of 5 days, biocide was dosed daily. After exposure, the coupons were immediately selectively dyed in order to distinguish between live and dead organisms and then analysed with CLSM. Samples were plated on an agar medium (aerobically) at the same time.

Compound | Total germ count (DBNPA 40 ppm product) [cfa/ml] | Total germ count (peracetic acid 60 ppm product) [cfu/ml]
N#CC(Br)(Br)C(N)=O [DBNPA, dibromonitrile propionamide] | < 1000 | –
CC(=O)OO [peracetic acid] | – | < 1000
